Source: paper PMC4992173, “Divergent synthesis and identification of the cellular targets of deoxyelephantopins” (Nature Communications, 2016)

Legend:
Heme oxygenase 2 (HMOX2) = target: T1, Heme oxygenase 2 (HMOX2) (Homo sapiens, UniProt P30519); test: In situ competitive profiling in live MCF7 cells (LFQ): HMOX2; type: cell-based; conditions: protein HMOX2, 4 h, then 10 µM 24c, n=4
T1 construct: endogenous in cells; host or cells: MCF7
Source text: (§1) In our efforts to determine the direct molecular targets of deoxyelephantopin we first performed a gel-based competitive in situ proteomic profiling assay[41] […] While the greater conformational flexibility of probe 24c could potentially lead to more promiscuous target engagement relatively to deoxyelephantopin, it was favoured based on the fact that an alkyne moiety appended to the rigid scaffold of deoxyelephantopin may hinder some of its interactions. MCF7 cells were pretreated with various concentrations of deoxyelephantopin for 4 h, harvested, lysed and the lysates were treated with the fluorogenic probe 24c-Cy3 (10 μM; Supplementary Fig. 10). […] Furthermore, cells were pretreated with 20 μM concentration of deoxyelephantopin or 24c and the proteomic profiles were compared (Fig. 6b, Supplementary Fig. 11). Multiple bands were detected that were equally competed by both DEP and 24c, thus again confirming that 24c can be used as an acceptable clickable analogue of deoxyelephantopin in pulldown assays. Having established the optimal labelling conditions by SDS–PAGE, we next carried out a mass spectrometry-based competitive profiling assay[42] coupled with the method of stable isotope labelling of amino acids in culture (SILAC)[43]. […]
(§2) Figure 6 Proteome-wide identification of deoxyelephantopin targets. […] Quantification was performed using label-free quantification (LFQ) method (n=4). […]

Nucleoporin p54 (NUP54) = target: T2, Nucleoporin p54 (NUP54) (Homo sapiens, UniProt Q7Z3B4); test: In situ competitive profiling in live MCF7 cells (LFQ): NUP54; type: cell-based; conditions: protein NUP54, 4 h, then 10 µM 24c, n=4
T2 construct: endogenous in cells; host or cells: MCF7
T2 sequence (Q7Z3B4 whole entry): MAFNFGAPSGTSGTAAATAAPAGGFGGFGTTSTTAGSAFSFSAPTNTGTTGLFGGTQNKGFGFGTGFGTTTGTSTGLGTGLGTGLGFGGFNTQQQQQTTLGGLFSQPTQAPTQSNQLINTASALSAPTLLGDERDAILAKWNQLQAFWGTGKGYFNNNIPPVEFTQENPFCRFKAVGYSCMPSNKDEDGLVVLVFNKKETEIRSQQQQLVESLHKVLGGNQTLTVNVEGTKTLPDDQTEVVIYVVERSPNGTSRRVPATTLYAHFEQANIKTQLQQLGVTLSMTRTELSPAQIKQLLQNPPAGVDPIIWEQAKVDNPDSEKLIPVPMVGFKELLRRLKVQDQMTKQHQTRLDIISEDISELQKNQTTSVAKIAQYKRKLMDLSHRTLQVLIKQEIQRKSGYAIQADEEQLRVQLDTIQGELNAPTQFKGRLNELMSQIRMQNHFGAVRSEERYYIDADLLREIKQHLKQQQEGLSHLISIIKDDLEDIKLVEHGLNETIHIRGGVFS
Source text: as §1, §2

T1 sequence (P30519 whole entry): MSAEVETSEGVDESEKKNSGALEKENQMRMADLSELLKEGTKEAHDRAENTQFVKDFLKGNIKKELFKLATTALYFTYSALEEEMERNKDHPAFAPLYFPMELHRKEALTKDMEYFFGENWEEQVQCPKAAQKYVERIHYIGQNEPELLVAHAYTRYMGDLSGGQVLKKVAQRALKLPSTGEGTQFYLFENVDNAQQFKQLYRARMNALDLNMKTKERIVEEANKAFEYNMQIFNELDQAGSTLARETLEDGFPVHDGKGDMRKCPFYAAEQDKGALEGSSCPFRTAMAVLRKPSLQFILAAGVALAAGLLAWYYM

## C=C(C)C(=O)O[C@H]1CC2=C[C@@H](C/C(C)=C/[C@H]3OC(=O)C(=C)[C@H]13)OC2=O [deoxyelephantopin]
Heme oxygenase 2 (HMOX2)
  LFQ ratio 20 µM Deoxyelephantopin/DMSO with 24c: 0.14
Nucleoporin p54 (NUP54)
  LFQ ratio 20 µM Deoxyelephantopin/DMSO with 24c: 0.24
